Molecular target: human GPR40 receptor (Homo sapiens, UniProt O14842)
Experiment: IP1 accumulation measurements using the IPOne assay system
Assay type: cell-based
Conditions: 1321N1 cells stably expressing human GPR40; stimulation 1 h at 37° C.
Procedure: IP1 accumulation measurements using the IPOne assay system—1321N1 cells stably expressing human GPR40 receptor (Euroscreen, Belgium) are seeded 24 h before the assay in white 384-well plates in culture medium containing 10% FCS, 1% Na-Pyruvate and 400 μg/mL G418. IP1 is assayed according to the manufacturer's description (Cisbio Bioassays, France). In brief, the assay is started by substitution of the culture medium by stimulation buffer (Hepes 10 mM, CaCl2 1 mM, MgCl2 0.5 mM, KCl 4.2 mM, NaCl 146 mM, glucose 5.5 mM and LiCl 50 mM, pH 7.4). Cells are stimulated for 1 h at 37° C., 5% CO2 by addition of the compounds that are diluted in stimulation buffer containing LiCl. Assays are stopped by adding HTRF-conjugates (IP1-d2 and Anti-IP1 cryptate Tb) and lysis buffer, provided by the manufacturer. After an incubation time of 1 h at room temperature plates are measured using an EnVision™, Perkin Elmer. The obtained fluorescence ratios at 665/615 […] are then used to calculate the pEC50 values using Assay Explorer 3.3 Software (Accelrys, Inc.) by interpolation using an IP1 reference curve and subsequent sigmoidal curve fitting allowing for a variable hill slope.

Chain of human GPR40 receptor (O14842 whole entry): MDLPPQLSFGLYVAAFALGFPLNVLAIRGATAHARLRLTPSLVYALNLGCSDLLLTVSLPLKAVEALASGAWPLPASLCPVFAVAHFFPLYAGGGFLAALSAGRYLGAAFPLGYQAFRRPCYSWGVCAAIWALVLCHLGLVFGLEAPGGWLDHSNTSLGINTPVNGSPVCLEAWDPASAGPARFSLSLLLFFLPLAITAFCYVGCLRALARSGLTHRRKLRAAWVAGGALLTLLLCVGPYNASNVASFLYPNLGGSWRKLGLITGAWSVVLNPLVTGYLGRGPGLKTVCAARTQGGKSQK

Row | Structure (SMILES) | EC50 [nM]
1 | O=C(O)C[C@@H]1COc2cc(O[C@@H]3CCc4c(Oc5ccc(CO)c(F)c5)ccc(F)c43)ccc21 [Example 28, {(S)-6-[(R)-7-Fluoro-4-(3-fluoro-4-hydroxymethyl-phenoxy)-indan-1-yloxy]-2,3-dihydro-benzofuran-3-yl}-acetic acid] | 8
2 | N#Cc1ccc(Oc2ccc(F)c3c2CC[C@H]3Oc2ccc3c(c2)OC[C@H]3CC(=O)O)cc1F [Example 29, {(S)-6-[(R)-4-(4-Cyano-3-fluoro-phenoxy)-7-fluoro-indan-1-yloxy]-2,3-dihydro-benzofuran-3-yl}-acetic acid] | 6
3 | N#Cc1ccc(F)cc1Oc1ccc(F)c2c1CC[C@H]2Oc1ccc2c(c1)OC[C@H]2CC(=O)O [Example 30, {(S)-6-[(R)-4-(2-Cyano-5-fluoro-phenoxy)-7-fluoro-indan-1-yloxy]-2,3-dihydro-benzofuran-3-yl}-acetic acid] | 11
4 | CN(C)c1ccc(Oc2ccc(F)c3c2CC[C@H]3Oc2ccc3c(c2)OC[C@H]3CC(=O)O)cn1 [Example 31] | 120
5 | O=C(O)C[C@@H]1COc2cc(O[C@@H]3CCc4c(Oc5ccnc(C(F)(F)F)c5)ccc(F)c43)ccc21 [Example 32, {(S)-6-[(R)-7-Fluoro-4-(2-trifluoromethyl-pyrid-4-yloxy)-indan-1-yloxy]-2,3-dihydro-benzofuran-3}-acetic acid] | 6
6 | O=C(O)C[C@@H]1COc2cc(O[C@@H]3CCc4c(Oc5ncc(F)cn5)ccc(F)c43)ccc21 [Example 33, {(S)-6-[(R)-7-Fluoro-4-(5-fluoro-pyrimid-2-yloxy)-indan-1-yloxy]-2,3-dihydro-benzofuran-3-yl}-acetic acid] | 31
7 | COc1ccc(Oc2ccc(F)c3c2CC[C@H]3Oc2ccc3c(c2)OC[C@H]3CC(=O)O)cn1 [Example 34, {(S)-6-[(R)-7-Fluoro-4-(2-methoxy-pyrid-5-yloxy)-indan-1-yloxy]-2,3-dihydro-benzofuran-3-yl}-acetic acid] | 5
8 | COc1ncc(Oc2ccc(F)c3c2CC[C@H]3Oc2ccc3c(c2)OC[C@H]3CC(=O)O)cn1 [Example 35, {(S)-6-[(R)-7-Fluoro-4-(2-methoxy-pyrimid-5-yloxy)-indan-1-yloxy]-2,3-dihydro-benzofuran-3-yl}-acetic acid] | 79
9 | COc1cc(Oc2ccc(F)c3c2CC[C@H]3Oc2ccc3c(c2)OC[C@H]3CC(=O)O)ccn1 [Example 36, {(S)-6-[(R)-7-Fluoro-4-(2-methoxy-pyrid-4-yloxy)-indan-1-yloxy]-2,3-dihydro-benzofuran-3-yl}-acetic acid] | 4
10 | COc1cc(Oc2ccc(F)c3c2CC[C@H]3Oc2ccc3c(c2)OC[C@H]3CC(=O)O)ccc1C#N [Example 37, {(S)-6-[(R)-4-(4-Cyano-3-methoxy-phenoxy)-7-fluoro-indan-1-yloxy]-2,3-dihydro-benzofuran-3-yl}-acetic acid] | 5
11 | Cn1ccc2cc(Oc3ccc(F)c4c3CC[C@H]4Oc3ccc4c(c3)OC[C@H]4CC(=O)O)ccc21 [Example 38, {(S)-6-[(R)-7-Fluoro-4-(1-methyl-1H-indol-5-yloxy)-indan-1-yloxy]-2,3-dihydro-benzofuran-3-yl}-acetic acid] | 6
12 | O=C(O)C[C@@H]1COc2cc(O[C@@H]3CCc4c(Oc5cccc6cccnc56)ccc(F)c43)ccc21 [Example 39, {(S)-6-[(R)-7-Fluoro-4-(Quinolin-8-yloxy)-indan-1-yloxy]-2,3-dihydro-benzofuran-3-yl}-acetic acid] | 21
13 | O=C(O)C[C@@H]1COc2cc(O[C@@H]3CCc4c(Oc5ccc6ccccc6n5)ccc(F)c43)ccc21 [Example 40, {(S)-6-[(R)-7-Fluoro-4-(Quinolin-2-yloxy)-indan-1-yloxy]-2,3-dihydro-benzofuran-3-yl}-acetic acid] | 22
14 | N#Cc1ccc(Oc2ccc(F)c3c2CC[C@H]3Oc2ccc3c(c2)OC[C@H]3CC(=O)O)c(C#N)c1 [Example 41, {(S)-6-[(R)-4-(2,4-Dicyano-phenoxy)-7-fluoro-indan-1-yloxy]-2,3-dihydro-benzofuran-3-yl}-acetic acid] | 17
15 | Cn1cnc2cc(Oc3ccc(F)c4c3CC[C@H]4Oc3ccc4c(c3)OC[C@H]4CC(=O)O)ccc21 [Example 42, {(S)-6-[(R)-7-Fluoro-4-(1-methyl-1H-benzoimidazol-5-yloxy)-indan-1-yloxy]-2,3-dihydro-benzofuran-3-yl}-acetic acid] | 891
16 | O=C(O)C[C@@H]1COc2cc(O[C@@H]3CCc4c(Oc5ncc6ccccc6n5)ccc(F)c43)ccc21 [Example 43, {(S)-6-[(R)-7-Fluoro-4-(Quinazolin-2-yloxy)-indan-1-yloxy]-2,3-dihydro-benzofuran-3-yl}-acetic acid] | 34

Row | Structure (SMILES) | EC50 [nM]
17 | COc1ccc(Oc2ccc(F)c3c2CC[C@H]3Oc2ccc3c(c2)OC[C@H]3CC(=O)O)nc1 [Example 44, {(S)-6-[(R)-7-Fluoro-4-(5-methoxy-pyrid-2-yloxy)-indan-1-yloxy]-2,3-dihydro-benzofuran-3-yl}-acetic acid] | 19
18 | Cn1ncc2cc(Oc3ccc(F)c4c3CC[C@H]4Oc3ccc4c(c3)OC[C@H]4CC(=O)O)ccc21 [Example 45, {(S)-6-[(R)-7-Fluoro-4-(1-methyl-1H-indazol-5-yloxy)-indan-1-yloxy]-2,3-dihydro-benzofuran-3-yl}-acetic acid] | 7
19 | Cn1ncc2ccc(Oc3ccc(F)c4c3CC[C@H]4Oc3ccc4c(c3)OC[C@H]4CC(=O)O)cc21 [Example 46, {(S)-6-[(R)-7-Fluoro-4-(1-methyl-1H-indazol-6-yloxy)-indan-1-yloxy]-2,3-dihydro-benzofuran-3-yl}-acetic acid] | 3
20 | Cc1cc2c(cnn2C)cc1Oc1ccc(F)c2c1CC[C@H]2Oc1ccc2c(c1)OC[C@H]2CC(=O)O [Example 47, {(S)-6-[(R)-7-Fluoro-4-(1,6-dimethyl-1H-indazol-5-yloxy)-indan-1-yloxy]-2,3-dihydro-benzofuran-3-yl}-acetic acid] | 26
21 | Cc1nc2cc(Oc3ccc(F)c4c3CC[C@H]4Oc3ccc4c(c3)OC[C@H]4CC(=O)O)ccc2s1 [Example 48, {(S)-6-[(R)-7-Fluoro-4-(2-methyl-benzothiazol-5-yloxy)-indan-1-yloxy]-2,3-dihydro-benzofuran-3-yl}-acetic acid] | 7
22 | Cc1cc(Oc2ccc(F)c3c2CC[C@H]3Oc2ccc3c(c2)OC[C@H]3CC(=O)O)cc(C)c1C#N [Example 49, {(S)-6-[(R)-4-(4-Cyano-3,5-dimethyl-phenoxy)-7-fluoro-indan-1-yloxy]-2,3-dihydro-benzofuran-3-yl}-acetic acid] | 12
23 | N#Cc1ccc(Br)cc1Oc1ccc(F)c2c1CC[C@H]2Oc1ccc2c(c1)OC[C@H]2CC(=O)O [Example 50, {(S)-6-[(R)-4-(5-Bromo-2-cyano-phenoxy)-7-fluoro-indan-1-yloxy]-2,3-dihydro-benzofuran-3-yl}-acetic acid] | 6
24 | N#Cc1cc(F)c(Oc2ccc(F)c3c2CC[C@H]3Oc2ccc3c(c2)OC[C@H]3CC(=O)O)c(F)c1 [Example 51, {(S)-6-[(R)-4-(4-cyano-2,6-difluoro-phenoxy)-7-fluoro-indan-1-yloxy]-2,3-dihydro-benzofuran-3-yl}-acetic acid] | 18
25 | COc1cc(C#N)ccc1Oc1ccc(F)c2c1CC[C@H]2Oc1ccc2c(c1)OC[C@H]2CC(=O)O [Example 52, {(S)-6-[(R)-4-(4-Cyano-2-methoxy-phenoxy)-7-fluoro-indan-1-yloxy]-2,3-dihydro-benzofuran-3-yl}-acetic acid] | 6
26 | Cc1c(Oc2ccc(F)c3c2CC[C@H]3Oc2ccc3c(c2)OC[C@H]3CC(=O)O)ccc2c1cnn2C [Example 53, {(S)-6-[(R)-7-Fluoro-4-(1,4-dimethyl-1H-indazol-5-yloxy)-indan-1-yloxy]-2,3-dihydro-benzofuran-3-yl}-acetic acid] | 69
27 | N#Cc1ccc(F)c(Oc2ccc(F)c3c2CC[C@H]3Oc2ccc3c(c2)OC[C@H]3CC(=O)O)c1 [Example 54, {(S)-6-[(R)-4-(5-Cyano-2-fluoro-phenoxy)-7-fluoro-indan-1-yloxy]-2,3-dihydro-benzofuran-3-yl}-acetic acid] | 29
28 | Cc1nc2cc(Oc3ccc(F)c4c3CC[C@H]4Oc3ccc4c(c3)OC[C@H]4CC(=O)O)ccc2o1 [Example 55, {(S)-6-[(R)-7-Fluoro-4-(2-methyl-benzoxazol-5-yloxy)-indan-1-yloxy]-2,3-dihydro-benzofuran-3-yl}-acetic acid] | 6
29 | COc1ccc(Oc2ccc(F)c3c2CC[C@H]3Oc2ccc3c(c2)OC[C@H]3CC(=O)O)c(F)c1 [Example 56, {(S)-6-[(R)-4-(2-Fluoro-4-methoxy-phenoxy)-7-fluoro-indan-1-yloxy]-2,3-dihydro-benzofuran-3-yl}-acetic acid] | 6
30 | COc1c(F)cc(Oc2ccc(F)c3c2CC[C@H]3Oc2ccc3c(c2)OC[C@H]3CC(=O)O)cc1F [Example 57, {(S)-6-[(R)-4-(3,5-Difluoro-4-methoxy-phenoxy)-7-fluoro-indan-1-yloxy]-2,3-dihydro-benzofuran-3-yl}-acetic acid] | 7
31 | Cc1nc2ccc(Oc3ccc(F)c4c3CC[C@H]4Oc3ccc4c(c3)OC[C@H]4CC(=O)O)cc2o1 [Example 58, {(S)-6-[(R)-7-Fluoro-4-(2-methyl-benzoxazol-6-yloxy)-indan-1-yloxy]-2,3-dihydro-benzofuran-3-yl}-acetic acid] | 3

From patent publication US8815864B2, “Indanyloxydihydrobenzofuranylacetic acids” (Boehringer Ingelheim International GmbH, priority 2012, dated 2014)
